We go through two molecules from PMC7719162, “Positioning of an unprecedented spiro[5.5]undeca ring system into kinase inhibitor space” (Scientific Reports, 2020).

Assay [1] has as its target T1, CDK3/cyclin E (Homo sapiens, UniProt Q00526).
T1 construct: purchased Reaction Biology Corp
To be noted: cited from earlier work.

Assay [2] addresses T2, DAPK1 (Homo sapiens, UniProt P53355).
T2 construct: purchased Reaction Biology Corp
Conditions: cited from earlier work.

Assay [3] concerns the target T3, RIPK5 (Homo sapiens, UniProt Q6XUX3).
T3 construct: purchased Reaction Biology Corp
T3 sequence (Q6XUX3 1-929): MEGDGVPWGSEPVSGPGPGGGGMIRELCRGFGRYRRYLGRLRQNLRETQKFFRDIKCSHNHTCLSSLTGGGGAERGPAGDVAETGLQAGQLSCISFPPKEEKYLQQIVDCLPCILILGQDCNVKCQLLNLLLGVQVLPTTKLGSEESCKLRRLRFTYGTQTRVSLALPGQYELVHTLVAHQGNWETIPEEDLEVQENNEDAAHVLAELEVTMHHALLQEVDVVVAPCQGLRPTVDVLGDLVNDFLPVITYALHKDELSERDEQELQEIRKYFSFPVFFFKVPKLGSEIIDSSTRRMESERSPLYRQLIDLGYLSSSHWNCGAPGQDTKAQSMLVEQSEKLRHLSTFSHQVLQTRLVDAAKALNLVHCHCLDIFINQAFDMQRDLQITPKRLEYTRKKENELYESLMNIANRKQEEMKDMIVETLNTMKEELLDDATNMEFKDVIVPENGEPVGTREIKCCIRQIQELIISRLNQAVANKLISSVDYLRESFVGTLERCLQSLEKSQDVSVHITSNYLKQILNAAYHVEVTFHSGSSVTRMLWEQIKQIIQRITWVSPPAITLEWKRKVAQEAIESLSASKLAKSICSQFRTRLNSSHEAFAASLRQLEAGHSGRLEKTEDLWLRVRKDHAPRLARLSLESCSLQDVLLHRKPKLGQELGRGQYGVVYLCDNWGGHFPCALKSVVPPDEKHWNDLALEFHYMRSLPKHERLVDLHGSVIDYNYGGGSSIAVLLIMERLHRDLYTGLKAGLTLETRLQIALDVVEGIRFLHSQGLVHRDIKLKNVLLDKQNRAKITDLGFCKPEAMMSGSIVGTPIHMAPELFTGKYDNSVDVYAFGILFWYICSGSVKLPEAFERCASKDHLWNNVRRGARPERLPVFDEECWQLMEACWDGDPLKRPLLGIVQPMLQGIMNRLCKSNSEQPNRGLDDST
To be noted: cited from earlier work.

Assay [4] has as its target T4, TRKB (Homo sapiens, UniProt Q16620).
T4 construct: purchased Reaction Biology Corp
Conditions: cited from earlier work.

For assay [5], the target named is T5, TRKC (Homo sapiens, UniProt Q16288).
T5 construct: purchased Reaction Biology Corp
To be noted: cited from earlier work.

Assay [6] addresses T6, AMPK(A1/B1/G3) (Homo sapiens, UniProt Q13131).
T6 construct: purchased Reaction Biology Corp
Briefly: Kinase panel assay (radiolabelled). Type of assay: biochemical. Conditions: 30 μM compound, ATP 10 μM; duplicates Data 1/Data 2.

Assay [7] concerns the target T7, AMPK(A1/B1/G3) (Homo sapiens, UniProt Q13131+Q9UGI9+Q9Y478).
T7 construct: purchased Reaction Biology Corp
In words: Kinase panel assay (radiolabelled). Type of assay: biochemical. Conditions: 30 μM compound, ATP 10 μM; duplicates Data 1/Data 2; read-out: % Enzyme Activity (relative to DMSO controls).

The target of assay [8] is T8, EIF2AK1 (Homo sapiens, UniProt Q9BQI3).
T8 construct: purchased Reaction Biology Corp
In words: Kinase panel assay (radiolabelled). Type of assay: biochemical. To be noted: 30 μM compound, ATP 10 μM, duplicates Data 1/Data 2. The protocol:
(§1) Every inhibitory activity of tested compounds was measured by radiolabelled method of Reaction Biology Corp). The radiolabelled ATP ([γ-^33P] ATP) replaced a substrate with ^33P-phosphorylated substrate so that the activity of a kinase was measured from the radiolabelled phosphorylated substrate. Kinase panel assay was tested at 30 μM testing compounds with an ATP concentration of 10 μM and a substrate concentration of 10 μM. % Residual activity against GSK3β was measured at 10 uM compounds 1 and 2. […] Curve fits of control compounds were performed where the enzyme activities at the highest concentration of compounds were less than 65%. The concentration of DMSO was controlled and raw data, % kinase activity was calculated relative to DMSO controls.

The target of assay [9] is T9, PDK1/PDHK1 (Homo sapiens, UniProt Q15118).
T9 construct: purchased Reaction Biology Corp
Briefly: Kinase panel assay (radiolabelled). Type of assay: biochemical. To be noted: 30 μM compound, ATP 10 μM, duplicates Data 1/Data 2. The protocol: as §1

Assay [10] concerns the target T10, PDK2/PDHK2 (Homo sapiens, UniProt Q15119).
T10 construct: purchased Reaction Biology Corp
In words: Kinase panel assay (radiolabelled). The class given is biochemical. To be noted: 30 μM compound, ATP 10 μM, duplicates Data 1/Data 2. The protocol: as §1

The target in assay [11] is T11, PDK3/PDHK3 (Homo sapiens, UniProt Q15120).
T11 construct: purchased Reaction Biology Corp
In words: Kinase panel assay (radiolabelled). Type of assay: biochemical. To be noted: 30 μM compound, ATP 10 μM, duplicates Data 1/Data 2. The protocol:
as §1

For assay [12], the target named is T12, PDK4/PDHK4 (Homo sapiens, UniProt Q16654).
T12 construct: purchased Reaction Biology Corp
Briefly: Kinase panel assay (radiolabelled). The class given is biochemical. Conditions: 30 μM compound, ATP 10 μM, duplicates Data 1/Data 2. The protocol: as §1

The target in assay [13] is T13, TRPM7/CHAK1 (Homo sapiens, UniProt Q96QT4).
T13 construct: purchased Reaction Biology Corp
In words: Kinase panel assay (radiolabelled). Type of assay: biochemical. To be noted: 30 μM compound, ATP 10 μM, duplicates Data 1/Data 2. The protocol:
as §1

For assay [14], the target named is T14, GSK3b (Homo sapiens, UniProt P49841).
T14 construct: purchased Reaction Biology Corp
In words: Kinase panel assay (radiolabelled). Type of assay: biochemical.

The target of assay [15] is T15, P38b/MAPK11 (Homo sapiens, UniProt Q15759).
T15 construct: purchased Reaction Biology Corp
Briefly: Kinase panel assay (radiolabelled). The class given is biochemical. To be noted: ATP 10 μM.

Assay [16] addresses T16, PKCa (Homo sapiens, UniProt P17252).
T16 construct: purchased Reaction Biology Corp
Briefly: Kinase panel assay (radiolabelled). Type of assay: biochemical. To be noted: ATP 10 μM.

In assay [17] the target is T17, TRKA-TFG (TRK-T3) (Homo sapiens, UniProt P04629+Q92734).
T17 construct: TFG (fusion partner); purchased Reaction Biology Corp
Briefly: Kinase panel assay (radiolabelled). The class given is biochemical. Conditions: 30 μM compound, ATP 10 μM, duplicates Data 1/Data 2.

Assay [18] deals with GSK3β (Homo sapiens, UniProt P49841). Briefly: GSK3β radiolabelled kinase assay (% residual activity, IC50, ATP competition). Type of assay: biochemical.
Where [19] appears, read: read-out: % Enzyme Activity (relative to DMSO controls).
Where [20] appears, read: 30 μM compound, duplicates Data 1/Data 2.
[21] abbreviates: 30 μM compound, duplicates Data 1/Data 2, read-out: % Enzyme Activity (relative to DMSO controls).
The mark [22] stands for this setting: 30 μM, average ± SD, read-out: % Residual Activity at 30 μM.

A word on the inhibition: it is the percentage by which the read-out fell short of the control. The IC50 is the midpoint of a concentration-inhibition curve.

Like-named read-outs stand apart in the source and are kept apart here.

T15 sequence (Q15759 whole entry): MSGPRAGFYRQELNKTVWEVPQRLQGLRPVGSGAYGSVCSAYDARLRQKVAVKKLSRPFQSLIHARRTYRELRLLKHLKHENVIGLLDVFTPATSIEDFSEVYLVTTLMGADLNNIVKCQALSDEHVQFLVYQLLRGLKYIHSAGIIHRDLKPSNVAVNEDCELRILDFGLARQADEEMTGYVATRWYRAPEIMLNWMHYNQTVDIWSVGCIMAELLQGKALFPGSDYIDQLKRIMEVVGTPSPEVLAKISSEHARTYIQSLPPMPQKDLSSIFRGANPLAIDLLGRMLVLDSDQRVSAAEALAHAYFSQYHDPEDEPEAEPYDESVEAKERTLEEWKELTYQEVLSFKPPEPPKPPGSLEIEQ
T14 sequence (P49841 whole entry): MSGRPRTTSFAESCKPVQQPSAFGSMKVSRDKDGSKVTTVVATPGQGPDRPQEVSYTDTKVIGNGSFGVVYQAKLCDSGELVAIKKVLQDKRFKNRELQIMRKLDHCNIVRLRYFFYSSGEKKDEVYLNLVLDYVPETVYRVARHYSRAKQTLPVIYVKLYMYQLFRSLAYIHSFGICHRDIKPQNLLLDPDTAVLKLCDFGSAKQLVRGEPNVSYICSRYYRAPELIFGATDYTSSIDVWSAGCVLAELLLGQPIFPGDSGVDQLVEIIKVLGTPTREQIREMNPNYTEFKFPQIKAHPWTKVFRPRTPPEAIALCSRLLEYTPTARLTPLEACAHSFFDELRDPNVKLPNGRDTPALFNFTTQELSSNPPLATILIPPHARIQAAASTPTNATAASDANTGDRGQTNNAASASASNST
T9 sequence (Q15118 29-436): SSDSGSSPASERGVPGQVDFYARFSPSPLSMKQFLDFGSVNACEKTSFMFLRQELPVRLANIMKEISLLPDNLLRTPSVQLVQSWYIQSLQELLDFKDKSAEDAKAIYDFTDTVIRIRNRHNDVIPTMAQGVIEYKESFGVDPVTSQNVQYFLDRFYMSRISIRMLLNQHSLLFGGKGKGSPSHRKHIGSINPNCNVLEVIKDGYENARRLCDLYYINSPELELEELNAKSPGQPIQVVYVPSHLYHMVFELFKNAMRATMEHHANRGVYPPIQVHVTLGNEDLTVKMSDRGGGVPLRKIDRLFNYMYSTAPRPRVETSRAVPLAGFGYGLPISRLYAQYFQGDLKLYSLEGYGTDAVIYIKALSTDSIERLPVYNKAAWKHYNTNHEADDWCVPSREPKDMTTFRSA
T13 sequence (Q96QT4 whole entry): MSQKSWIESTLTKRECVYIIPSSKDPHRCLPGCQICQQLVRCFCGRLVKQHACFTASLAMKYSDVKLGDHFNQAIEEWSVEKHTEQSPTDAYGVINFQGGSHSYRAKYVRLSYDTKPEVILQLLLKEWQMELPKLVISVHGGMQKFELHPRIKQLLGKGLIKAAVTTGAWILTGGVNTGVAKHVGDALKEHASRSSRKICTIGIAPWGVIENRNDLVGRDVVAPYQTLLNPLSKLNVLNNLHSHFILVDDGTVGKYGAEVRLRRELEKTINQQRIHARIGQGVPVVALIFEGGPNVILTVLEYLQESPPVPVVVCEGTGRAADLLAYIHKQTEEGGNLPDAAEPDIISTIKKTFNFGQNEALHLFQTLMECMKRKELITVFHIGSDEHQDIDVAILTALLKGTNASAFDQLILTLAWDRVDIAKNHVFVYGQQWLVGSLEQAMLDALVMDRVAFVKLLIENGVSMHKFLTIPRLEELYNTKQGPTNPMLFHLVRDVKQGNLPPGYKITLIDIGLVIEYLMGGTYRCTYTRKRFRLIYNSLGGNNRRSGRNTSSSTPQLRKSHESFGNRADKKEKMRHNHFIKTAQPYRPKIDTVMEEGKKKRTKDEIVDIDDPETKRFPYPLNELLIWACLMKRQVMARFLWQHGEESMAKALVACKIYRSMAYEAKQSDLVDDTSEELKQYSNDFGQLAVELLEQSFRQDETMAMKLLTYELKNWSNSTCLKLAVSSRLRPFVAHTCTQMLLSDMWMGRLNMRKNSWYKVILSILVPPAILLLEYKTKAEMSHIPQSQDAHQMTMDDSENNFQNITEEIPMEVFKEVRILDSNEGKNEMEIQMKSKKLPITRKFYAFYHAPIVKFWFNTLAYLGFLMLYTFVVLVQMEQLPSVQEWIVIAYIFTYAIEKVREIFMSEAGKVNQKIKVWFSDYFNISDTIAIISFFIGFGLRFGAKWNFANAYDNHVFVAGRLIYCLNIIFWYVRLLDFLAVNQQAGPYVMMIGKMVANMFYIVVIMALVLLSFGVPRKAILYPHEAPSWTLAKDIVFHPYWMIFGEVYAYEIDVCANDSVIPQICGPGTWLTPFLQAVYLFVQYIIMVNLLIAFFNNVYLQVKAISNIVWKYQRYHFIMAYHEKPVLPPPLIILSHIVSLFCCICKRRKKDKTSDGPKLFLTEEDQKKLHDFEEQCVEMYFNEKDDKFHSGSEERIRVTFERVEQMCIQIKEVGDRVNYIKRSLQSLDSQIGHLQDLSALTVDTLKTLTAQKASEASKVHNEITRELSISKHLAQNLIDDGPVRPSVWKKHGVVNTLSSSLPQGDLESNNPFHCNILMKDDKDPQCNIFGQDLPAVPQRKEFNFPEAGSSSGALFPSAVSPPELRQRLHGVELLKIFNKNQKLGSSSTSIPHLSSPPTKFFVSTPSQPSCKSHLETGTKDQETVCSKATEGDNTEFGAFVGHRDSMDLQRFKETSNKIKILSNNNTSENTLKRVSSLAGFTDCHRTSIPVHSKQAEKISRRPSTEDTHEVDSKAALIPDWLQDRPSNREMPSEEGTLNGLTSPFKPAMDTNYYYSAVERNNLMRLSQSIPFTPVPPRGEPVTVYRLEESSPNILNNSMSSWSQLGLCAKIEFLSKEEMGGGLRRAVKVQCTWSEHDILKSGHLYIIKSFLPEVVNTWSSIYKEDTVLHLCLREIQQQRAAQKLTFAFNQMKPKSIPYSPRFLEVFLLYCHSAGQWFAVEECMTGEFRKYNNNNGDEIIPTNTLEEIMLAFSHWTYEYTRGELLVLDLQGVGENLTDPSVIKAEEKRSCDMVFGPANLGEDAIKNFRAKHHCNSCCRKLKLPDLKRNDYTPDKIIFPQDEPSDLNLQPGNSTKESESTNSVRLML
T12 sequence (Q16654 whole entry): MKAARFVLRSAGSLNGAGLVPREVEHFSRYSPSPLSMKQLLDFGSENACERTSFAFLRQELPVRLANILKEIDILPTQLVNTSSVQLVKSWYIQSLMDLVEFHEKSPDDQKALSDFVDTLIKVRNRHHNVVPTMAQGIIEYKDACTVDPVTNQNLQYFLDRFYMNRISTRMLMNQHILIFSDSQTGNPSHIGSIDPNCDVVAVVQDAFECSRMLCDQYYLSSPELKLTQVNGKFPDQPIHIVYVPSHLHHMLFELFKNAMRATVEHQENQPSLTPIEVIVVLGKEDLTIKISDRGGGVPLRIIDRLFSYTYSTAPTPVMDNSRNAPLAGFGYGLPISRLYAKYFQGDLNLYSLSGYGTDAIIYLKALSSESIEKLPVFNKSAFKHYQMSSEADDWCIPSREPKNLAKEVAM
Sequence of GSK3β (P49841 whole entry): as the sequence (P49841 whole entry) above
T8 sequence (Q9BQI3 whole entry): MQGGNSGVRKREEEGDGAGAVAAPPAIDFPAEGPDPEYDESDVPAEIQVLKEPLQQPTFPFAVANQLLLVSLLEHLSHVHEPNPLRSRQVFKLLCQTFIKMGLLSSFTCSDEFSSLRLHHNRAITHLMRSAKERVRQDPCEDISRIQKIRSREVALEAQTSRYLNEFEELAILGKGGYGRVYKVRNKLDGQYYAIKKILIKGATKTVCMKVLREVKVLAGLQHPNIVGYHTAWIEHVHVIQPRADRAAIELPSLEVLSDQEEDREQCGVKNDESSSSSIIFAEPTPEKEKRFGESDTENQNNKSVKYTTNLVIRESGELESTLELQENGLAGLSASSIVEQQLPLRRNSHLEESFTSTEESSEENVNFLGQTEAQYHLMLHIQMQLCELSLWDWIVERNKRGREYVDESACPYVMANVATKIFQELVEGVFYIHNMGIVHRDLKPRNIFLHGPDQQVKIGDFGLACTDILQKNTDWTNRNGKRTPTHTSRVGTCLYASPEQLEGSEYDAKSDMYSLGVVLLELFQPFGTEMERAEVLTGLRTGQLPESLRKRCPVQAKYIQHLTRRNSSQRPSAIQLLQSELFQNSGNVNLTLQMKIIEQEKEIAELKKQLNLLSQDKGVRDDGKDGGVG

In the case of `O=C1C=CC2(C=C1)OCC(Cc1cc(C(F)(F)F)cc(C(F)(F)F)c1)C(=O)N2c1ccccc1` (racemic) [1c], the “% Residual Activity at 30 μM” value in assay [1] is reported as 59.3 ± 1.2%; in assay [2] it was 45.4 ± 0.1%; in assay [3], 59.3 ± 1.0%; in [4] it was 94.1 ± 1.7%; in assay [5] it was 97.9 ± 0.2%.
Regarding `O=C1C=CC2(C=C1)OCC(Cc1cn(-c3cccc(Cl)c3)nn1)C(=O)N2c1ccccc1` (stereo not drawn) [2d, 3-((1-(3-Chlorophenyl)-1H-1,2,3-triazol-4-yl)methyl)-5-phenyl-1-oxa-5-azaspiro[5.5]undeca-7,10-diene-4,9-dione], the “% Enzyme Activity (relative to DMSO controls)” value in [6] amounted to 100.85%; in assay [8] it was 87.95%; in [9] it was 85.01%; in [10], 63.30%; in assay [11], 82.28%; in assay [12], 105.05%. The “% Enzyme Activity (relative to DMSO controls)” value in assay [13] is 63.76%; in assay [14] (30 μM compound, ATP 10 μM, duplicates Data 1/Data 2) it was 1.64%; in [15] (setting [20]) it was 109.52%; in assay [16] (setting [20]), 62.24%; in [17], 102.82%. Besides, the remaining activity at 30 µM in [7] was 101%; in assay [8] (setting [19]) it was 91.7%; in assay [9] (setting [19]), 85.6%; in [10] (setting [19]), 64.3%; in assay [11] (setting [19]), 85.9%; in assay [12] (setting [19]) it was 111%. The remaining activity at 30 µM amounted to 67.5% in [13] (setting [19]); 2.81% in assay [14] (30 μM compound, ATP 10 μM, duplicates Data 1/Data 2, read-out: % Enzyme Activity (relative to DMSO controls)); 2.2 ± 0.8% in [14] (30 μM, ATP 10 μM, average ± SD, read-out: % Residual Activity at 30 μM); 110% in assay [15] (setting [21]); 109.9 ± 0.5% in [15] (setting [22]); 63% in assay [16] (setting [21]). Also, the remaining activity at 30 µM in assay [16] (setting [22]) came out at 62.6 ± 0.5%; in [17] (setting [19]), 109%. In addition, the inhibition at 30 µM in [14] (30 μM, read-out: inhibition of GSK-3β in 70-kinase panel) is greater than 90%. Besides, the IC50 in [18] (ATP 1 μM (Table 2), read-out: IC50 on GSK3β (converted)) was 7.04 µM. In [18] (at 10 μM compound), the remaining activity at 10 µM is 51.1 ± 6.1%.
